# In patent US20110207779A1, “PROCESS FOR THE PREPARATION OF ESOMEPRAZOLE MAGNESIUM” (GLENMARK GENERICS LTD, priority 2010, published 2011):
# Test: R-isomer content of formulated esomeprazole magnesium dihydrate after incubation in a closed container (chiral HPLC)
# Format: physicochemical
# Conditions: formulated in above mentioned dosage forms (capsules, mini-tablets); incubated in a closed container; temperature and time not given
# Method: The content of R-isomer in esomeprazole magnesium dihydrate was measured by chiral high performance liquid chromatography equipped with quaternary gradient pumps, variable wavelength UV detector attached with data recorder and integrator software under the following conditions:
# Buffer preparation: mix 70 mL of 156.0 g/l solution of sodium dihydrogen phosphate R with 20 mL of a 179.1 g/l solution of disodium hydrogen phosphate R. Dilute with water to 1000 mL and then dilute 250 mL of this solution with water to 1000 ml. Mobile phase: Acetonitrile: buffer solution pH 6.0 (65:435, v/v).
compound,measurement,value
"COc1ccc2[n-]c([S@@+]([O-])Cc3ncc(C)c(OC)c3C)nc2c1.COc1ccc2[n-]c([S@@+]([O-])Cc3ncc(C)c(OC)c3C)nc2c1.O.O.[Mg+2] [Esomeprazole magnesium dihydrate, esomeprazole magnesium dihydrate]",R-isomer content after formulation and incubation (chiral stability),remains within the range of R-isomer content
